Laboratory results: publication PMC9048841 (Journal of medicinal chemistry, 2022)
*1 amine or outer side, *2 acyl side, *3 side chain or, on linkers, in order; H or OH if unused. Where a SMILES comes first, the peptide text is derived from it. [ ]: non-standard residue; d: D form. The star is where a group is joined. Phe(3,4-(OMe)2) = COc1ccc(C[C@H](N)C(=O)O)cc1OC; Lys(Et,iPr) = CCN(CCCC[C@H](N)C(=O)O)C(C)C; X2 = O=C(C(N[*:1])[C@@H](O)c1ccccc1)[*:2]; Lys(Et2) = CCN(CC)CCCC[C@H](N)C(=O)O; Lys(Me2) = CN(C)CCCC[C@H](N)C(=O)O; X1 = O=C(c1ccoc1)*

Key:
[1] = target: CBX5 chromodomain (wild type) (Homo sapiens, UniProt P45973); experiment: ITC binding to wild-type CBX5 chromodomain; details: for fold tighter binding of CBX5 than to UNC6212 (Kme2): wild-type CBX5, relative to UNC6212
[2] = target: H3K9me3 peptide (Homo sapiens) (UniProt P68431); details: cited from earlier work

Row | Kd [1] | fold tighter binding than HP1 with H3K9me3 ([1]; CBX5 with UNC6212 vs HP1 with H3K9me3) | fold more potent than histone tail peptides H3K9me3 and H3K9me2 ([1]; KD for CBX5, ligand vs H3K9me3 and H3K9me2) | fold tighter binding of CBX5 than to UNC6212 (Kme2) [1] | Compound | Kd [2]
1 | 5.7 µM | about 2.5 fold | about 5 fold |  | COc1ccc(C[C@H](NC(=O)[C@H](C)NC(=O)C(NC(=O)c2ccoc2)[C@@H](O)c2ccccc2)C(=O)N[C@@H](CCCCN(C)C)C(=O)N[C@@H](CO)C(N)=O)cc1OC (stereo partly drawn) [UNC6212, N-((7S,10S,13S,17S)-7-(((S)-1-amino-3-hydroxy-1-oxopropan-2-yl)carbamoyl)-10-(3,4-dimethoxybenzyl)-17-hydroxy-2,13-dimethyl-9,12,15-trioxo-17-phenyl-2,8,11,14-tetraazaheptadecan-16-yl)furan-3-carboxamide] (X1-[X2]A[Phe(3,4-(OMe)2)][Lys(Me2)]S-NH2) | 
2 |  |  |  | about 2 fold | CCN(CC)CCCC[C@H](NC(=O)[C@H](Cc1ccc(OC)c(OC)c1)NC(=O)[C@H](C)NC(=O)C(NC(=O)c1ccoc1)[C@@H](O)c1ccccc1)C(=O)N[C@@H](CO)C(N)=O (stereo partly drawn) [UNC6349, N-((8S,11S,14S,18S)-8-(((S)-1-amino-3-hydroxy-1-oxopropan-2-yl)carbamoyl)-11-(3,4-dimethoxybenzyl)-3-ethyl-18-hydroxy-14-methyl-10,13,16-trioxo-18-phenyl-3,9,12,15-tetraazaoctadecan-17-yl)furan-3-carboxamide] (X1-[X2]A[Phe(3,4-(OMe)2)][Lys(Et2)]S-NH2) | 
3 |  |  |  |  | CBX5 (from UniProt P45973) | 30 µM
4 | 3.3 µM |  |  | about 2 fold | CCN(CCCC[C@H](NC(=O)[C@H](Cc1ccc(OC)c(OC)c1)NC(=O)[C@H](C)NC(=O)C(NC(=O)c1ccoc1)[C@@H](O)c1ccccc1)C(=O)N[C@@H](CO)C(N)=O)C(C)C (stereo partly drawn) [UNC6864, N-((8S,11S,14S,18S)-8-(((S)-1-amino-3-hydroxy-1-oxopropan-2-yl)carbamoyl)-11-(3,4-dimethoxybenzyl)-3-ethyl-18-hydroxy-2,14-dimethyl-10,13,16-trioxo-18-phenyl-3,9,12,15-tetraazaoctadecan-17-yl)furan-3-carboxamide] (X1-[X2]A[Phe(3,4-(OMe)2)][Lys(Et,iPr)]S-NH2) | 
